{
  "source": "patent EP0189596A1",
  "about": "“Benzofuran and benzothiophene derivatives” (SHIONOGI & CO., LTD., priority 1984, dated 1986)",
  "key": {"[1]": {"experiment": "Bioassay for Diuretic Effect on Mice", "format": "in vivo, Slc:ddy mice", "settings": "Mouse, oral, Dose (mg) 30, urine collected for 4 hours, percentage to control (100%)", "procedure": "(§1) I . Test Method: • Experiments with rats and mice were carried out according to Assay Programs #27-104 and #27-106, respectively. The outline is as follows.\nSlc:ddy 5-week-old mice (female, about 20g body-weight each) were used for the test. From the morning of the day before the test day, the mice were fasted but water. In the morning of the test day, a sample which was prepared by suspending or dissolving a test compound in 2% gum arabic was orally administered to each at 30 ml/kg. On the other hand, mere by 2% gum arabic was orally administered to the control group at 30 ml/kg. Immediately after the administration, 5 mice employed were put in a plastic cage for the metabolic tests and their urine samples were collected for 4 hours. The cumulative urine volume, urinary sodium (Na^+), and urinary potassium (K^+) were quantitatively determined. II. Test Results\n(§2) Results regarding the urine volume are shown by percentages to control (100%). Also, results regarding the urinary sodium (Na^+) and the urinary potassium (K^+) are shown by percentages to control (100%)."}, "[2]": {"experiment": "Bioassay for Diuretic Effect on Rats", "format": "in vivo, SLc:SD rats", "settings": "Rat, oral, percentage to control (100%)", "procedure": "as §1\nSLc:SD 8-week-old rats (male, about 250g body-weight each) were used for the test. A few lumps of sugar in place of ordinary diets were given on the morning of the day before the test day and 5% glucose solution was given orally at a rate of 20 ml/kg in the evening (approximately at 4 p.m.) of the […]. In the morning for the test, a sample which was prepared by suspending or dissolving a test compound in 2X gum arabic was orally administered to each at a dose of 20 ml/kg. On the other hand, mere by 2% gum arabic was orally administered to the control group at 20 ml/kg. Immediately after the administration, the test animals were put in a plastic cage for the metabolic tests and their urine samples were collected for 5 hours. The cumulative urine volume, urinary sodium (Na^+), and urinary potassium (K^+) were quantitatively determined.\nas §2"}, "[3]": {"settings": "Dose (mg) 50, urine collected for 5 hours"}, "[4]": {"settings": "Dose (mg) 10, urine collected for 5 hours"}},
  "data": [
    {"compound": "CC(C(=O)c1cc2c(c(Cl)c1Cl)OC(C(=O)O)C2)=C1SCCS1", "note": "(stereo not drawn) [Example 3]", "values": [
      {"measurement": "Urinary K^+ (%)", "setting": "[1]", "value": "304※ %"},
      {"measurement": "Urinary Na^+ (%)", "setting": "[1]", "value": "1370※ %"},
      {"measurement": "Urine Vol. (%)", "setting": "[1]", "value": "270※ %"},
      {"measurement": "Urinary K^+ (%)", "setting": "[2]; [3]", "value": "217※ %"},
      {"measurement": "Urinary Na^+ (%)", "setting": "[2]; [3]", "value": "291※ %"},
      {"measurement": "Urine Vol. (%)", "setting": "[2]; [3]", "value": "153※ %"}
    ]},
    {"compound": "C=C1CNC(=CC(=O)c2cc3c(c(Cl)c2Cl)OC(C(=O)O)C3)S1", "note": "(stereo not drawn) [Example 80]", "values": [
      {"measurement": "Urinary K^+ (%)", "setting": "[1]", "value": "344^※ %"},
      {"measurement": "Urinary Na^+ (%)", "setting": "[1]", "value": "738^※ %"},
      {"measurement": "Urine Vol. (%)", "setting": "[1]", "value": "264^※ %"},
      {"measurement": "Urinary K^+ (%)", "setting": "[2]; [4]", "value": "161^※ %"},
      {"measurement": "Urinary Na^+ (%)", "setting": "[2]; [4]", "value": "211^※ %"},
      {"measurement": "Urine Vol. (%)", "setting": "[2]; [4]", "value": 101, "unit": "%"}
    ]},
    {"compound": "CSC(SC)=C(C)C(=O)c1cc2c(c(C)c1Cl)OC(C(=O)O)C2", "note": "(stereo not drawn) [Example 14]", "values": [
      {"measurement": "Urinary K^+ (%)", "setting": "[1]", "value": "330※ %"},
      {"measurement": "Urinary Na^+ (%)", "setting": "[1]", "value": "743※ %"},
      {"measurement": "Urine Vol. (%)", "setting": "[1]", "value": "296※ %"}
    ]},
    {"compound": "O=C(C=C1NC=CS1)c1cc2c(c(Cl)c1Cl)OC(C(=O)O)C2", "note": "(stereo not drawn) [Example 70, 6,7-dichloro-5-((4-thiazolin-2-ylidene)acetyl]-2,3-dihydro-benzofuran-2-carboxylic acid]", "values": [
      {"measurement": "Urinary K^+ (%)", "setting": "[1]", "value": "178^※ %"},
      {"measurement": "Urinary Na^+ (%)", "setting": "[1]", "value": "410^※ %"},
      {"measurement": "Urine Vol. (%)", "setting": "[1]", "value": "144^※ %"},
      {"measurement": "Urinary K^+ (%)", "setting": "[2]; [3]", "value": "374^※ %"},
      {"measurement": "Urinary Na^+ (%)", "setting": "[2]; [3]", "value": "459^※ %"},
      {"measurement": "Urine Vol. (%)", "setting": "[2]; [3]", "value": "154^※ %"}
    ]},
    {"compound": "CSC(=CC(=O)c1cc2c(c(Cl)c1Cl)OC(C(=O)OCC(=O)O)C2)SC", "note": "(stereo not drawn) [Example 17, 6.7-Dichloro-5-[3,3-bis(metbylthic)-2-propenoyl]-2,3-dibydro-1-benzofuran-2-carboxyacetic acid]", "values": [
      {"measurement": "Urinary K^+ (%)", "setting": "[1]", "value": "277※ %"},
      {"measurement": "Urinary Na^+ (%)", "setting": "[1]", "value": "970※ %"},
      {"measurement": "Urine Vol. (%)", "setting": "[1]", "value": "216※ %"},
      {"measurement": "Urinary K^+ (%)", "setting": "[2]; [3]", "value": "285※ %"},
      {"measurement": "Urinary Na^+ (%)", "setting": "[2]; [3]", "value": "478※ %"},
      {"measurement": "Urine Vol. (%)", "setting": "[2]; [3]", "value": "144※ %"}
    ]},
    {"compound": "CSc1[nH]ccc1C(=O)c1cc2c(c(Cl)c1Cl)OC(C(=O)O)C2", "note": "(stereo not drawn) [Example 98, 6,7-dichloro-5-[2-(methylthio)pyrrol-3-yl-carbonyl]-2,3-dihydrobenzofuran-2-carboxylic acid]", "values": [
      {"measurement": "Urinary K^+ (%)", "setting": "[1]", "value": "292^※ %"},
      {"measurement": "Urinary Na^+ (%)", "setting": "[1]", "value": "810^※ %"},
      {"measurement": "Urine Vol. (%)", "setting": "[1]", "value": "222^※ %"},
      {"measurement": "Urinary K^+ (%)", "setting": "[2]; [4]", "value": "254^※ %"},
      {"measurement": "Urinary Na^+ (%)", "setting": "[2]; [4]", "value": "445^※ %"},
      {"measurement": "Urine Vol. (%)", "setting": "[2]; [4]", "value": "157^※ %"}
    ]},
    {"compound": "CC(C(=O)c1cc2c(c(Cl)c1Cl)OC(C(=O)O)C2)=C1OCCS1", "note": "(stereo not drawn) [Example 21]", "values": [
      {"measurement": "Urinary K^+ (%)", "setting": "[1]", "value": "273※ %"},
      {"measurement": "Urinary Na^+ (%)", "setting": "[1]", "value": "704※ %"},
      {"measurement": "Urine Vol. (%)", "setting": "[1]", "value": "155※ %"},
      {"measurement": "Urinary K^+ (%)", "setting": "[2]; [3]", "value": "178※ %"},
      {"measurement": "Urinary Na^+ (%)", "setting": "[2]; [3]", "value": "179※ %"},
      {"measurement": "Urine Vol. (%)", "setting": "[2]; [3]", "value": 104, "unit": "%"}
    ]},
    {"compound": "CSC(=CC(=O)c1cc2c(c(Cl)c1Cl)OC(C=O)C2)SC", "note": "(stereo not drawn) [Example 28]", "values": [
      {"measurement": "Urinary K^+ (%)", "setting": "[1]", "value": "260^※ %"},
      {"measurement": "Urinary Na^+ (%)", "setting": "[1]", "value": "905^※ %"},
      {"measurement": "Urine Vol. (%)", "setting": "[1]", "value": "222^※ %"}
    ]},
    {"compound": "CNC(=S)CC(=O)c1cc2c(c(Cl)c1Cl)OC(C(=O)O)C2", "note": "(stereo not drawn) [Example 67, 6,7-dichloro-5-[[N-methyl(thiocarbamoyl)]-acbtyl]-2,3-dihydrobenzofuran-2-carbaxylic acid]", "values": [
      {"measurement": "Urinary K^+ (%)", "setting": "[1]", "value": "232^※ %"},
      {"measurement": "Urinary Na^+ (%)", "setting": "[1]", "value": "610^※ %"},
      {"measurement": "Urine Vol. (%)", "setting": "[1]", "value": "192^※ %"},
      {"measurement": "Urinary K^+ (%)", "setting": "[2]; [3]", "value": "306^※ %"},
      {"measurement": "Urinary Na^+ (%)", "setting": "[2]; [3]", "value": "377^※ %"},
      {"measurement": "Urine Vol. (%)", "setting": "[2]; [3]", "value": "148^※ %"}
    ]}
  ]
}
